Measurements from patent US9403832B2, “Pyrazolo[1,5-a]pyrimidine-based compounds, compositions comprising them, and methods of their use” (Lexicon Pharmaceuticals, Inc., priority 2012, dated 2016).

Columns and labels:
AAK1 [1] = molecular target: T1, AAK1 (Homo sapiens, UniProt Q2M2I8); assay: HEK281 cell-based assay (CBA); details: HEK293F cells transfected with full length human AAK1 and AP2M1; phospho-mu2 Western blot; 3 hours incubation
T1 construct: NP_055726.2
Experimental: HEK293F cells were cultured in media containing DMEM (Gibco, cat. #11965), 10% FBS (SAFC Biosciences, cat. #12103C), 1× GPS (glutamine, penicillin and streptomycin). On day one, cells were plated on a 10 cm dish so that they are ˜80% confluent at time of transfection. Roughly 12 million cells were in a 10 cm dish at time of transfection. On day two, each dish was transfected with 48 ug DNA and 144 ul Lipofectamine 2000 (Invitrogen, cat. #11668-019). The DNA was comprised of a mixture (per 10 cm dish) containing 3 ug AAK1/HA/pIRES (full length human, NCBI accession no. NP_055726.2), 45 μg Flag/AP2MI/pcDNA (full length human), and 1.5 ml OPTI-MEM. The Lipofectamine 2000 is made up of a mixture (per 10 cm dish) containing 144 μl Lipofectamine 2000 and 1.5 ml OPTI-MEM. Each mixture was transferred to individual 15 ml tubes and incubated at RT for 5 minutes, and then the two mixes were combined and incubated at RT for 20 minutes.
Growth media was then aspirated from each 10 cm plate and replaced with 10 ml of DMEM+10% FBS (no GPS). Finally, 3 ml DNA/Lipofectamine mix was added to each 10 cm dish and mix gently followed by incubate of plate overnight at 37° C. and 5% CO2.
On day three, compounds were diluted in 100% DMSO at 1000× final concentration, followed by 3-fold serial dilutions for a total of 5 concentrations tested. Four compounds were tested per 10 cm dish. One ul of each compound dilution was then pipetted into a deep-well, 96-well plate, followed by addition of 500 μl DMEM+0.5% FBS into each well for a 2× final concentration of each compound. Cells were resuspended in a 10 cm dish by simple pipetting (HEK293 cells come off the plate that easy at this point) and then transferred to a 50 ml conical tube and pelleted by centrifugation at 1000 rpm for 5 min. Cell pellets were then resuspended in 2.75 ml DMEM+0.5% FBS per 10 cm dish and 100 μl of cell suspension transferred into each well of 96-well TC plate. Finally, 100 μl of 2× compound diluted in DMEM+0.5% FBS was then added into wells containing cell suspension for a 1× final concentration. Plates were then incubated at 37° C. and 5% CO2 for 3 hours followed by transferring of cell suspensions from each well into 12-tube PCR strips. The PCR strips were spun in a tip rack at 1000 rpm for 5 minutes to pellet cells and media was then removed by pipetting without disturbing the cell pellet.
To prepare for Western Blot analysis, cell pellets were resuspend in 40 ul 1× LDS-PAGE sample buffer (Invitrogen, cat.# NP0008)+2× Halt phophatase and protease inhibitor cocktail (Thermo Scientific, cat. #1861284), followed by sonicating each with microtip sonicator set at 5 for 8-10 seconds. Five ul of 10× NuPage Sample Reducing Agent (with 50 mM DTT) was to each sample followed by heat denaturing at 70 C for 10 min on PCR machine. A total of 10 μl per sample was loaded into each lane of a 4-20% Tris-Glycine Criterion 26-well gel (Biorad, cat. #345-0034) for the phospho-mu2 blot and 10 μl per lane in a 4-12% Bis-Tris (+MES buffer) NuPAGE 26-well gel (Invitrogen, cat.# WG1403BX10) for the mu2 blot. For controls, 2 ng of phospho-mu2 or 20 ng mu2/Flag proteins were loaded in the last well of each gel. After SDS-PAGE, samples on each gel were transferred to PVDF membrane using an iBlot and membranes were blocked for one hour in TBST+5% milk, followed by wash 3× for 5-10 min with TBST. Criterion gels were probed with rabbit anti-phospho-mu2 (1:5000; a rabbit polyclonal antibody produced by New England Peptide and affinity purified at Lexicon) in TBST+5% BSA, whereas, NuPAGE gels were probed with mouse anti-Flag (1:500; Sigma, cat.# F1804) in TBST+5% milk, and these primary antibodies were incubated overnight at 4° C. on a rocker.

AAK1 [2] = molecular target: T1, AAK1; assay: P81 filter plate assay; assay type: biochemical; details: full-length human AAK1, Mu2 substrate, 33P-ATP
Summary of the method: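 Full-length human AAK1 (0.2 nM, 2×) was pre-incubated 10 min at RT with compounds (top concentration 96 μM in the dilution plate), then reacted 1 h at RT with full-length human Mu2 (0.2 μM, 2×), cold ATP (2 μM, 2×) and ³³P-ATP. Reactions were stopped with phosphoric acid and captured on P81 filters for scintillation counting.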

T1 sequence (Q2M2I8 1-863 isoform Q2M2I8-2): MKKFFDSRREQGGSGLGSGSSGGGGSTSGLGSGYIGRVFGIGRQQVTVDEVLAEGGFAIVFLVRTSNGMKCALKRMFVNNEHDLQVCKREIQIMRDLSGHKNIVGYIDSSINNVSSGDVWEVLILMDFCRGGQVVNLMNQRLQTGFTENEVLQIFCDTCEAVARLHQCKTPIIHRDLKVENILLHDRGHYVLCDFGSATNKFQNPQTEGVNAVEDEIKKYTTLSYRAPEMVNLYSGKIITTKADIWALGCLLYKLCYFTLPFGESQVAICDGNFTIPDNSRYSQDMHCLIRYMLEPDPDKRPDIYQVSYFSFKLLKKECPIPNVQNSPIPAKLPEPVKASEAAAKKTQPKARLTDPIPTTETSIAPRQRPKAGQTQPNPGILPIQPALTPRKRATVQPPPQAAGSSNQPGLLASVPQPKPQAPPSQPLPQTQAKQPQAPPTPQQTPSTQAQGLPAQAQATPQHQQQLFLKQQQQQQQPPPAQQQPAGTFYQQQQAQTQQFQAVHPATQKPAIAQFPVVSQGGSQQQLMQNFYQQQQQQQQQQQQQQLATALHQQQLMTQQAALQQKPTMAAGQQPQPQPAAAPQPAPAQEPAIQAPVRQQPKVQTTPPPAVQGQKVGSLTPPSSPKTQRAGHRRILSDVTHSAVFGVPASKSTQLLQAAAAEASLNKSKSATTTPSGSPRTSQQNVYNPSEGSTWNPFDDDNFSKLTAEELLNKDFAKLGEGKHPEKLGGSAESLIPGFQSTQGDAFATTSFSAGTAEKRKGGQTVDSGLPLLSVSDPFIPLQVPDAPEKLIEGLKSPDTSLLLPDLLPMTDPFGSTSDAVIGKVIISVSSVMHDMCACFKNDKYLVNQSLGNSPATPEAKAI

| IC50 (AAK1 [1]) | IC50 (AAK1 [2]) | SMILES |
| --- | --- | --- |
| ≤ 0.01 µM | ≤ 0.01 µM | CC(C)(C)OC(=O)N1CCC[C@H]1CNc1ccn2ncc(-c3ccc(CN)cc3)c2n1 [(S)-tert-butyl 2-(((3-(4-(aminomethyl)phenyl)pyrazolo[1,5-a]pyrimidin-5-yl)amino)methyl)pyrrolidine-1-carboxylate] |
| ≤ 0.01 µM | ≤ 0.01 µM | COc1ccncc1-c1cnn2ccc(NC[C@@H]3CCCN3C(=O)OC(C)(C)C)nc12 [(S)-tert-butyl 2-(((3-(4-methoxypyridin-3-yl)pyrazolo[1,5-a]pyrimidin-5-yl)amino)methyl)pyrrolidine-1-carboxylate] |
| ≤ 0.01 µM | ≤ 0.01 µM | COc1ncccc1-c1cnn2ccc(N3CCN(C(=O)O[C@H]4CCOC4)CC3)nc12 [(S)-tetrahydrofuran-3-yl 4-(3-(2-methoxypyridin-3-yl)pyrazolo[1,5-a]pyrimidin-5-yl)piperazine-1-carboxylate] |
| ≤ 0.1 µM | ≤ 0.01 µM | [2H]C([2H])([2H])Oc1ncccc1-c1cnn2ccc(N3CCN(C(=O)OCC)CC3)nc12 [ethyl 4-(3-(2-d3-methoxypyridin-3-yl)pyrazolo[1,5-a]pyrimidin-5-yl)piperazine-1-carboxylate] |
| ≤ 0.1 µM | ≤ 0.01 µM | CCOC(=O)N1CCN(c2ccn3ncc(-c4cc(C)cnc4OC)c3n2)CC1 [ethyl 4-(3-(2-methoxy-5-methylpyridin-3-yl)pyrazolo[1,5-a]pyrimidin-5-yl)piperazine-1-carboxylate] |
| ≤ 0.1 µM | ≤ 0.01 µM | CCOC(=O)N1CCN(c2ccn3ncc(-c4ccc(C)nc4OC)c3n2)CC1 [ethyl 4-(3-(2-methoxy-6-methylpyridin-3-yl)pyrazolo[1,5-a]pyrimidin-5-yl)piperazine-1-carboxylate] |
| ≤ 0.1 µM | ≤ 0.01 µM | CCOC(=O)N1CCN(c2ccn3ncc(-c4cc(F)cnc4OC)c3n2)CC1 [ethyl 4-(3-(5-fluoro-2-methoxypyridin-3-yl)pyrazolo[1,5-a]pyrimidin-5-yl)piperazine-1-carboxylate] |
| ≤ 0.1 µM | ≤ 0.01 µM | COc1ncc(-c2cnn3ccc(N4CCN(C(=O)OC(C)C)CC4)nc23)c(OC)n1 [isopropyl 4-(3-(2,4-dimethoxypyrimidin-5-yl)pyrazolo[1,5-a]pyrimidin-5-yl)piperazine-1-carboxylate] |
| ≤ 0.1 µM | ≤ 0.01 µM | COc1cc(C)ccc1-c1cnn2ccc(N3CCN(C(=O)OC(C)C)CC3)nc12 [isopropyl 4-(3-(2-methoxy-4-methylphenyl)pyrazolo[1,5-a]pyrimidin-5-yl)piperazine-1-carboxylate] |
| ≤ 0.01 µM | ≤ 0.01 µM | COc1ncc(C)cc1-c1cnn2ccc(N3CCN(C(=O)OC(C)C)CC3)nc12 [isopropyl 4-(3-(2-methoxy-5-methylpyridin-3-yl)pyrazolo[1,5-a]pyrimidin-5-yl)piperazine-1-carboxylate] |
| ≤ 0.01 µM | ≤ 0.01 µM | [2H]C1([2H])N(C(=O)OC(C)C)C([2H])([2H])C([2H])([2H])N(c2ccn3ncc(-c4ccc(C)nc4OC)c3n2)C1([2H])[2H] [isopropyl 4-(3-(2-methoxy-6-methylpyridin-3-yl)pyrazolo[1,5-a]pyrimidin-5-yl)-d8-piperazine-1-carboxylate] |
| ≤ 0.1 µM | ≤ 0.01 µM | CC(C)OC(=O)N1CCN(c2ccn3ncc(-c4ccc(OCCN)cc4)c3n2)CC1 [isopropyl 4-(3-(4-(2-aminoethoxy)phenyl)pyrazolo[1,5-a]pyrimidin-5-yl)piperazine-1-carboxylate] |
| ≤ 0.01 µM | ≤ 0.01 µM | CC(C)OC(=O)N1CCN(c2ccn3ncc(-c4ccc(CN)cc4)c3n2)CC1 [isopropyl 4-(3-(4-(aminomethyl)phenyl)pyrazolo[1,5-a]pyrimidin-5-yl)piperazine-1-carboxylate] |
| ≤ 0.01 µM | ≤ 0.01 µM | COc1cc(C)c(F)cc1-c1cnn2ccc(N3CCN(C(=O)OC(C)C)CC3)nc12 [isopropyl 4-(3-(5-fluoro-2-methoxy-4-methylphenyl)pyrazolo[1,5-a]pyrimidin-5-yl)piperazine-1-carboxylate] |
| ≤ 0.01 µM | ≤ 0.01 µM | COc1ccc(F)cc1-c1cnn2ccc(N3CCN(C(=O)OC(C)C)CC3)nc12 [isopropyl 4-(3-(5-fluoro-2-methoxyphenyl)pyrazolo[1,5-a]pyrimidin-5-yl)piperazine-1-carboxylate] |
| ≤ 0.1 µM | ≤ 0.01 µM | COc1cccc(-c2cnn3ccc(N4CCN(C(=O)OC(C)C)CC4)nc23)n1 [isopropyl 4-(3-(6-methoxypyridin-2-yl)pyrazolo[1,5-a]pyrimidin-5-yl)piperazine-1-carboxylate] |
| ≤ 0.1 µM | ≤ 0.01 µM | COc1nc(C)ccc1-c1cnn2ccc(N(C)CCCN(C)C(=O)OC(C)C)nc12 [isopropyl (3-((3-(2-methoxy-6-methylpyridin-3-yl)pyrazolo[1,5-a]pyrimidin-5-yl)(methyl)amino)propyl)(methyl)carbamate] |
| ≤ 0.1 µM | ≤ 0.01 µM | COc1ncccc1-c1cnn2ccc(N(C)CCCN(C)C(=O)OC(C)C)nc12 [isopropyl (3-((3-(2-methoxypyridin-3-yl)pyrazolo[1,5-a]pyrimidin-5-yl)(methyl)amino)propyl)(methyl)carbamate] |
| ≤ 0.01 µM | ≤ 0.01 µM | COc1ncccc1-c1cnn2ccc(N3CCN(C(=O)OC4COC4)CC3)nc12 [oxetan-3-yl 4-(3-(2-methoxypyridin-3-yl)pyrazolo[1,5-a]pyrimidin-5-yl)piperazine-1-carboxylate] |
| ≤ 0.01 µM | ≤ 0.01 µM | CCCOC(=O)N1CCN(c2ccn3ncc(-c4ccc(C)nc4OC)c3n2)CC1 [propyl 4-(3-(2-methoxy-6-methylpyridin-3-yl)pyrazolo[1,5-a]pyrimidin-5-yl)piperazine-1-carboxylate] |
| ≤ 0.1 µM | ≤ 0.01 µM | CCCOC(=O)N1CCN(c2ccn3ncc(-c4cccnc4OC)c3n2)CC1 [propyl 4-(3-(2-methoxypyridin-3-yl)pyrazolo[1,5-a]pyrimidin-5-yl)piperazine-1-carboxylate] |
| ≤ 0.1 µM | ≤ 0.01 µM | CCCOC(=O)N1CCN(c2ccn3ncc(-c4cc(F)cnc4OC)c3n2)CC1 [propyl 4-(3-(5-fluoro-2-methoxypyridin-3-yl)pyrazolo[1,5-a]pyrimidin-5-yl)piperazine-1-carboxylate] |
| ≤ 0.01 µM | ≤ 0.01 µM | [2H]C([2H])([2H])Oc1ncccc1-c1cnn2ccc(N3CCN(C(=O)OC(C)(C)C)CC3)nc12 [tert-butyl 4-(3-(2-d3-methoxypyridin-3-yl)pyrazolo[1,5-a]pyrimidin-5-yl)piperazine-1-carboxylate] |
| ≤ 0.01 µM | ≤ 0.01 µM | CCOc1ncccc1-c1cnn2ccc(N3CCN(C(=O)OC(C)(C)C)CC3)nc12 [tert-butyl 4-(3-(2-ethoxypyridin-3-yl)pyrazolo[1,5-a]pyrimidin-5-yl)piperazine-1-carboxylate] |

| SMILES | IC50 (AAK1 [1]) | IC50 (AAK1 [2]) |
| --- | --- | --- |
| COc1ncccc1-c1cnn2ccc(NCCCOC(C)(C)C)nc12 [N-(3-(tert-butoxy)propyl)-3-(2-methoxypyridin-3-yl)pyrazolo[1,5-a]pyrimidin-5-amine] | ≤ 0.1 µM | ≤ 0.01 µM |
